Measured values reported in paper PMC6136712, “Ex vivo drug sensitivity testing as a means for drug repurposing in esophageal adenocarcinoma” (PLoS ONE, 2018).
pEC50: −log10 of the molar value. Structures can show the parent of a compound that is named as a salt.

Tested on: normal esophageal epithelium cell line EACN42
Experiment: FDA library drug sensitivity testing (CellTiter-Glo, 72 h), normal control cells
Format: cell-based, human
Set-up: key to DSS: modified drug sensitivity score (DSSmod) from dose-response curve fit
Conditions: EACN42 normal esophageal cells, 72 h; for DSS: drug sensitivity score; for pEC50: cell viability (ATP), max test concentration 10μM
Experimental: The normal esophageal epithelium cell line EACN42 was established in the Capobianco laboratory. The cell lines was derived from human normal epithelium and immortalized using HPV E6-E7.
Drug sensitivity testing (DST) was performed as described previously. […] Individual drugs were dissolved in 100% DMSO and tested in duplicates starting at a maximal test concentration of 10μM then over a 20,000-fold concentration range to generate dose response curves. Wells with assay buffer containing DMSO served as negative controls. 1000 exponentially growing cells were seeded per well in 384-well micro-titer plates and incubated in the presence of compounds in a humidified environment at 37°C and 5% CO2. After 72 hours of treatment, cell viability was assessed by measuring ATP levels via bioluminescence (CellTiter-Glo, Promega) according to manufactures recommendations. Interpretation of curve parameters was performed according to the modified drug sensitivity scoring (DSSmod) function developed by Swords et al. […] Given in this way, the sDSSmod incorporated information on each drug’s potency, efficacy, effect range and therapeutic index, making it possible to prioritize compounds over multiple parameters using a single numerical metric. […] All calculations and scoring routines are implemented in MatLab and additional curve fitting and statistical analyses are performed in GraphPad prism.

Row | SMILES | DSS | pEC50 (Homo sapiens) | other results
1 | Nc1cc(C(Cl)=C(Cl)Cl)c(S(N)(=O)=O)cc1S(N)(=O)=O [Clorsulon] | 0 |  | 
2 | CCCS(=O)(=O)Nc1ccc(F)c(C(=O)c2c[nH]c3ncc(-c4ccc(Cl)cc4)cc23)c1F [Vemurafenib] | 0 | 7.30 | 
3 | CN[C@H]1C[C@@H](N)[C@H](O)[C@@H](O[C@@H]2O[C@H](CO)[C@H](O)[C@@H]3OC4(O[C@H]23)O[C@H]([C@@H](N)CO)[C@H](O)[C@H](O)[C@H]4O)[C@@H]1O (stereo partly shown) [Hygromycin B] | 3.8 |  | pEC50: 5.11
4 | CN1C2=CC(=O)/C(=N\NC(N)=O)C=C2CC1S(=O)(=O)[O-].[Na+] (stereo not shown) [Carbazochrome sodium sulfonate] | 0 |  | 
5 | CCN[C@H]1C[C@H](C)S(=O)(=O)c2sc(S(N)(=O)=O)cc21 [Dorzolamide HCL] | 0.01 |  | 
6 | Cc1ccc(-c2cc(C(F)(F)F)nn2-c2ccc(S(N)(=O)=O)cc2)cc1 [Celecoxib] | 0 |  | 
7 | CN(C)c1nc(N(C)C)nc(N(C)C)n1 [Altretamine] | 0 |  | 
8 | Cc1ccc(NC(=O)c2ccc(CN3CCN(C)CC3)cc2)cc1Nc1nc(-c2cccnc2)cs1 [Masitinib] | 0 |  | 
9 | CC/C(=C(/CC)c1ccc(O)cc1)c1ccc(O)cc1 [Diethylstilbestrol] | 0 |  | 
10 | COc1nc(N)nc2c1ncn2[C@@H]1O[C@H](CO)[C@@H](O)[C@@H]1O [Nelarabine] | 0 |  | 
11 | C[C@@H](O[C@H]1OCCN(Cc2n[nH]c(=O)[nH]2)[C@H]1c1ccc(F)cc1)c1cc(C(F)(F)F)cc(C(F)(F)F)c1 [Aprepitant] | 0 |  | 
12 | CC[C@H]1OC(=O)[C@H](C)[C@@H](O[C@H]2C[C@@](C)(OC)[C@@H](O)[C@H](C)O2)[C@H](C)[C@@H](O[C@@H]2O[C@H](C)C[C@H](N(C)C)[C@H]2O)[C@](C)(O)C[C@@H](C)CN(C)[C@H](C)[C@@H](O)[C@]1(C)O [Azithromycin] | 0 |  | 
13 | COc1ccc2[n-]c([S@@+]([O-])Cc3ncc(C)c(OC)c3C)nc2c1.[Na+] [Esomeprazole sodium] | 0 |  | 
14 | C[C@@]12C[C@@]3(O)O[C@@H](O1)[C@]1(COC(=O)c4ccccc4)[C@H]3C[C@@]12O[C@@H]1O[C@H](CO)[C@@H](O)[C@H](O)[C@H]1O [Paeoniflorin] | 0 |  | 
15 | CNC[C@H](O)c1ccc(O)c(O)c1 [Epinephrine bitartrate] | 0 |  | 
16 | O=C(c1ccc(OCCN2CCCCC2)cc1)c1c(-c2ccc(O)cc2)sc2cc(O)ccc12 [Evista] | 0 |  | 
17 | CC(=O)O[C@H]1CC[C@@]2(C)C(=CC[C@@H]3[C@@H]2CC[C@]2(C)C(c4cccnc4)=CC[C@@H]32)C1 [Abiraterone Acetate] | 0 |  | 
18 | CC1=C(CC(=O)O)c2cc(F)ccc2/C1=C\c1ccc([S+](C)[O-])cc1 (stereo not shown) [Sulindac] | 0 | 7.30 | 
19 | C[C@]12CC[C@@H]3c4ccc(O)cc4CC[C@H]3[C@@H]1CCC2=O [Estrone] | 0 |  | 
20 | CCCCNC(=O)NS(=O)(=O)c1ccc(C)cc1 [Tolbutamide] | 0 | 7.22 | 
21 | CN(C)C/C=C/C(=O)Nc1cc2c(Nc3ccc(F)c(Cl)c3)ncnc2cc1O[C@H]1CCOC1 [Afatinib] | 0.12 | 5.34 | 

Row | SMILES | DSS | pEC50 (Homo sapiens) | other results
22 | O=C(O)C1=CO[C@@H](O[C@@H]2O[C@H](CO)[C@@H](O)[C@H](O)[C@H]2O)[C@@H]2C(CO)=CC[C@H]12 [Geniposidic acid] | 0 |  | 
23 | CS(=O)(=O)CCNCc1ccc(-c2ccc3ncnc(Nc4ccc(OCc5cccc(F)c5)c(Cl)c4)c3c2)o1 [Lapatinib] | 0 | 7.40 | 
24 | N=C(N)/N=C(\N)N1CCOCC1 [Moroxydine] | 0 |  | 
25 | O=C(O)CCCN1CCC(O[C@@H](c2ccc(Cl)cc2)c2ccccn2)CC1.O=S(=O)(O)c1ccccc1 [Bepotastine Besilate] | 0 |  | 
26 | CS(=O)(=O)c1ccc(C(=O)Nc2ccc(Cl)c(-c3ccccn3)c2)c(Cl)c1 [Vismodegib] | 0 |  | 
27 | COc1cc2c(cc1O)CC[C@@H]1[C@@H]2CC[C@]2(C)[C@@H](O)CC[C@@H]12 [2-Methoxyestradiol] | 0.26 | < 5.00 | 
28 | C[C@H]1C[C@H]2[C@@H]3CCC4=CC(=O)C=C[C@]4(C)[C@H]3C(=O)C[C@]2(C)[C@@]1(O)C(=O)CO [Betapar] | 0 |  | 
29 | CCOC(=O)[C@H](CCc1ccccc1)N[C@H]1CS[C@H](c2cccs2)CN(CC(=O)O)C1=O [Temocapril HCl] | 0 |  | 
30 | Nc1nnc(-c2cccc(Cl)c2Cl)c(N)n1 [Lamotrigine] | 0 |  | 
31 | CCC[C@@H]1C[C@@H](C(=O)N[C@@H]([C@H]2O[C@H](SC)[C@H](O)[C@@H](O)[C@H]2O)[C@@H](C)O)N(C)C1 [Lincomycin hydrochloride] | 0 | 6.00 | 
32 | CCCC(CCC)C(=O)O [Valproic acid sodium salt] | 0 | 5.70 | 
33 | CNC(=O)c1cc(Oc2ccc(NC(=O)Nc3ccc(Cl)c(C(F)(F)F)c3)cc2)ccn1 [Sorafenib] | 1.79 | 5.02 | 
34 | Clc1ccc(C(c2ccccc2Cl)C(Cl)Cl)cc1 (stereo not shown) [Mitotane] | 0 | 8.22 | 
35 | C=C1/C(=C\C=C2/CCC[C@]3(C)[C@@H]([C@H](C)/C=C/[C@H](C)C(C)C)CC[C@@H]23)C[C@@H](O)C[C@@H]1O [Doxercalciferol] | 0 | 8.15 | 
36 | CCN1CCN(c2cc(-c3ccc(F)cc3)c3c(n2)CCCCCC3)CC1 [Blonanserin] | 0 | 7.40 | 
37 | CNC(=O)c1cc(Oc2ccc(NC(=O)Nc3ccc(Cl)c(C(F)(F)F)c3)c(F)c2)ccn1 [Regorafenib] | 1.85 | < 5.00 | 
38 | CC(=O)O[C@]1(C(C)=O)CC[C@H]2[C@@H]3C[C@H](C)C4=CC(=O)CC[C@]4(C)[C@H]3CC[C@@]21C [Medroxyprogesterone acetate] | 0 |  | 
39 | CC(C)C(=O)Nc1ccc([N+](=O)[O-])c(C(F)(F)F)c1 [Flutamide] | 0 |  | 
40 | CCCCC1C(=O)N(c2ccccc2)N(c2ccccc2)C1=O [Phenylbutazone] | 0 |  | 
41 | O=NN(CCCl)C(=O)NC1CCCCC1 [Lomustine] | 0 |  | 
42 | Nc1ncnc2[nH]cnc12 [Adenine] | 0 |  | 

Row | SMILES | DSS | pEC50 (Homo sapiens) | other results
43 | Nc1cccc2c1C(=O)N(C1CCC(=O)NC1=O)C2=O (stereo not shown) [Pomalidomide] | 0 | 9.80 | 
44 | COC(=O)N[C@H](C(=O)N[C@@H](Cc1ccccc1)[C@@H](O)CN(Cc1ccc(-c2ccccn2)cc1)NC(=O)[C@@H](NC(=O)OC)C(C)(C)C)C(C)(C)C.O=S(=O)(O)O [Atazanavir sulfate] | 0 |  | 
45 | NC(=O)c1ncn([C@@H]2O[C@H](CO)[C@@H](O)[C@H]2O)c1O [Mizoribine] | 0 | 8.22 | 
46 | CNC(=O)c1ccccc1Sc1ccc2c(/C=C/c3ccccn3)n[nH]c2c1 [Axitinib] | 0 |  | 
47 | CCN(CC)CCNC(=O)c1c(C)[nH]c(/C=C2\C(=O)Nc3ccc(F)cc32)c1C [Sunitinib Malate] | 0 | 8.00 | 
48 | CCCCCOC(=O)Nc1nc(=O)n([C@@H]2O[C@H](C)[C@@H](O)[C@H]2O)cc1F [Capecitabine] | 0 | 6.00 | 
49 | O=C1[O][Pt]2([NH][C@@H]3CCCC[C@H]3[NH]2)[O]C1=O [Oxaliplatin] | 0.06 |  | treatment response in words: minimal treatment effects
50 | C[C@@H]1C[C@H]2[C@@H]3CCC4=CC(=O)C=C[C@]4(C)[C@@]3(F)[C@@H](O)C[C@]2(C)[C@@]1(O)C(=O)CO [Dexamethasone] | 0 |  | 
51 | N.N.O=C([O-])C1(C(=O)[O-])CCC1.[Pt+2] [Carboplatin] | 3.68 |  | treatment response in words: minimal treatment effects; pEC50: 5.63
52 | CCOC(=O)C1=C[C@]2(CC)CCCN3CCc4c(n1c1ccccc41)[C@@H]32 [Vinpocetine] | 0 |  | 
53 | C=C1c2cccc(O)c2C(=O)C2=C(O)[C@]3(O)C(=O)C(C(N)=O)=C(O)[C@@H](N(C)C)[C@@H]3[C@@H](O)[C@H]12 [Methacycline hydrochloride] | 0 | < 5.00 | 
54 | O=C1[C@H](CC[C@H](O)c2ccc(F)cc2)[C@@H](c2ccc(O)cc2)N1c1ccc(F)cc1 [Ezetimibe] | 0 |  | 
55 | CNC(=O)c1ccc(N2C(=S)N(c3ccc(C#N)c(C(F)(F)F)c3)C(=O)C2(C)C)cc1F [Enzalutamide] | 0 |  | 
56 | CNNCc1ccc(C(=O)NC(C)C)cc1 [Procarbazine HCl] | 0 |  | 
57 | CCC1(c2ccc(N)cc2)CCC(=O)NC1=O (stereo not shown) [Aminoglutethimide] | 0 |  | 
58 | CCC(C)n1ncn(-c2ccc(N3CCN(c4ccc(OCC5COC(Cn6cncn6)(c6ccc(Cl)cc6Cl)O5)cc4)CC3)cc2)c1=O (stereo not shown) [Itraconazole] | 0 |  | 
59 | CN(CCOc1ccc(CC2SC(=O)NC2=O)cc1)c1ccccn1 (stereo not shown) [Rosiglitazone] | 0 |  | 
60 | CC1=C(/C=C/C(C)=C/C=C/C(C)=C\C(=O)O)C(C)(C)CCC1 [Isotretinoin] | 0 |  | 
61 | Cl.Cl.Fc1ccc(C(c2ccc(F)cc2)N2CCN(C/C=C/c3ccccc3)CC2)cc1 [Flunarizine 2HCl] | 0.03 |  | 
62 | Cc1nc(-c2ccc(OCC(C)C)c(C#N)c2)sc1C(=O)O [Febuxostat] | 0 | < 5.00 | 
